# Assay results as given in ChEMBL document CHEMBL1201862, “PubChem BioAssay data set” (2004).
# Active and inactive are the calls of the source.
# Tests used:
# [1] = biological target: T1, Polyadenylate-binding protein 1 (Homo sapiens, UniProt P11940); test: PABP1 MLLE–PAM2 interaction inhibitors, dose response, miRNA deadenylation inhibitor project, biochemical, fluorescence polarization, Cy5-PAM2 peptide, secondary (AID 602260); type: functional; settings: read-out: IC50_Mean
# [2] = biological target: T1, Polyadenylate-binding protein 1; test: PABP1 MLLE–PAM2 binding inhibitor potency, dose response, biochemical, fluorescence polarization, FITC-PAM2 peptide (AID 602259); type: functional; settings: read-out: IC50_Mean
# [3] = biological target: T2, Heat shock factor protein 1 (Mus musculus, UniProt P38532); test: HSF1 potentiators in luciferase reporter cells, confirmation, cell-based, NIH3T3, luminescence, dose retest (AID 435004); type: functional;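 further: stress induced by proteasome inhibitor MG132 added 30 min after compound; luciferase reporter driven by HSF1 response element in NIH3T3 cells; actives raise luminescence as potentiators of the MG132 stress response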
# T2 sequence (P38532 whole entry): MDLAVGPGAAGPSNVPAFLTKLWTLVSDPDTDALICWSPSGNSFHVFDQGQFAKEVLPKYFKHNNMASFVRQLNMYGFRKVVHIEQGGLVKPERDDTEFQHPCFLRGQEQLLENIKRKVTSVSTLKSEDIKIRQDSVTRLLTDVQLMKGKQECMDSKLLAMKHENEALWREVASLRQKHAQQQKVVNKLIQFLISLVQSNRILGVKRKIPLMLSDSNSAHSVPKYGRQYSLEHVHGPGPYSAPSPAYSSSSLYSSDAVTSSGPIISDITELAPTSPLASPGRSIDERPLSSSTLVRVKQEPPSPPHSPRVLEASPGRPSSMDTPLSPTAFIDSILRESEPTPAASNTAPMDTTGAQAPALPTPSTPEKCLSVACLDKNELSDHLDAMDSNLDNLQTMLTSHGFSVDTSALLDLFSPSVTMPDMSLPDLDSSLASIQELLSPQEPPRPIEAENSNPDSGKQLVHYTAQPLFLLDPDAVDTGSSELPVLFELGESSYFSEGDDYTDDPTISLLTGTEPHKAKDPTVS
# [4] = cells; type: functional
# [5] = growth suppression of beta-catenin-knockout colon cells, dose response, cell-based, HCT116, human colon tumor (AID 1045); type: functional;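 further: HCT116 colon tumor cells with beta catenin knocked out; cells exposed to compound for 60 hours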
# [6] = tested on: INS1; test: beta cell apoptosis inhibitors, cytokine rescue, dose response, luminescence, retest (AID 449756); type: functional, cell-based; settings: Rattus norvegicus;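 further: cell death triggered by IL-1 beta plus TNF-alpha plus IFN-gamma mixture; protective hits raise ATP signal compared with cytokine alone wells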
# [7] = Luminescence Cell-Based Dose Retest to Confirm Inhibitors of Cancer Stem Cells. [Related pubchem assays (depositor defined):AID2717, AID2721]; type: functional; settings: Homo sapiens
# [8] = growth suppression of PTEN-null colon cells, dose response, cell-based, HCT116 PTEN knockout (AID 1047); type: functional;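 further: HCT116 colon tumor cells with PTEN knocked out; cells exposed to compound for 60 hours before readout; potency for loss of cell viability measured by luminescence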
# [9] = tested on: H9c2; test: cells; type: functional, cell-based; settings: Rattus norvegicus, H9c2, Myocardium;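 further: confirmatory concentration-response retest of ultra-high-throughput screening hits for modulation of myocardial damage; cell death induced by hydrogen peroxide oxidative stress; compound pretreatment for 60 min then peroxide exposure for 2 h; potency is for protecting the cells against peroxide damage rather than for killing them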
# [10] = inhibitors of intracellular T. cruzi replication, confirmation, NIH3T3 host cells, beta-gal luminescence (AID 2044); type: functional, cell-based;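 further: intracellular parasites grown in NIH/3T3 mouse fibroblasts as host cells; luminescent beta-galactosidase reporter signal from transgenic T. cruzi replicating inside host cells; inhibitors lower the luminescence signal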
# [11] = cytotoxicity toward NIH3T3 fibroblasts, dose response, counter-screen, cell-based, ATP luminescence, mouse fibroblasts (AID 2010); type: functional;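 further: cells exposed to compound for about 90 hours before reading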
# [12] = biological target: T2, Heat shock factor protein 1; test: inhibition of MG132-induced HSE-luciferase signal, confirmation, cell-based, NIH3T3, luminescence, dose retest (AID 2382); type: functional;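 further: NIH3T3 fibroblasts with HSF1-driven luciferase reporter stressed by proteasome inhibitor MG132; luminescence from HSF1-driven luciferase expression after 8 hours of MG132 stress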
# [13] = biological target: FAD-linked sulfhydryl oxidase ALR (Homo sapiens, UniProt P55789); test: inhibitors of human ALR sulfhydryl oxidase, dose response, biochemical, H2O2 detection, luminescence, cherry-pick (AID 493248)
# [14] = biological target: T3, Protein RecA (Mycobacterium tuberculosis, UniProt P9WHJ3); test: Fluorescence Cell-Free Homogeneous Dose Retest to Identify Inhibitors of RecA-Intein Splicing Activity. [Related pubchem assays (depositor defined):AID2097, AID2223, AID489010, AID492950]; type: functional
# T3 sequence (P9WHJ3 whole entry): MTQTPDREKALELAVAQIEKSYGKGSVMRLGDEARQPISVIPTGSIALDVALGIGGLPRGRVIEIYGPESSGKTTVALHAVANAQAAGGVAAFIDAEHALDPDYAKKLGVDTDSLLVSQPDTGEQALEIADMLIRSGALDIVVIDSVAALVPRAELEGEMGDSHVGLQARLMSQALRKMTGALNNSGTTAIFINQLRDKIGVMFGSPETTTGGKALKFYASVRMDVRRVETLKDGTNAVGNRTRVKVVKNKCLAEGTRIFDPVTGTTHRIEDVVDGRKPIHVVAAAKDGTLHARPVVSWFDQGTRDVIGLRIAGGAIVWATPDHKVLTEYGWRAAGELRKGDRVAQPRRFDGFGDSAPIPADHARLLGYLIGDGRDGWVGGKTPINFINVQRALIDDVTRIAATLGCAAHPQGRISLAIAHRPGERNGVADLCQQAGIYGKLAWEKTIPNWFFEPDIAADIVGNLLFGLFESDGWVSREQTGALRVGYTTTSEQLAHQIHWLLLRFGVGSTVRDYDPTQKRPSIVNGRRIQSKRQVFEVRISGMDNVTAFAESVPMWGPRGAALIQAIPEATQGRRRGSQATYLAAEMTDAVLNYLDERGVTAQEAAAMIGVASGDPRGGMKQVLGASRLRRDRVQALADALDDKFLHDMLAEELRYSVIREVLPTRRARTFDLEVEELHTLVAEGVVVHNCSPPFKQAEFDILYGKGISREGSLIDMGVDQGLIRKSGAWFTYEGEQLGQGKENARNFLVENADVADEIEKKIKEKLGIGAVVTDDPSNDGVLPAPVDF
# [15] = P. falciparum Dd2 growth inhibitors, dose response, SYBR Green, cherry-picked samples (AID 1159567); type: functional, cell-based
# T1 sequence (P11940 whole entry): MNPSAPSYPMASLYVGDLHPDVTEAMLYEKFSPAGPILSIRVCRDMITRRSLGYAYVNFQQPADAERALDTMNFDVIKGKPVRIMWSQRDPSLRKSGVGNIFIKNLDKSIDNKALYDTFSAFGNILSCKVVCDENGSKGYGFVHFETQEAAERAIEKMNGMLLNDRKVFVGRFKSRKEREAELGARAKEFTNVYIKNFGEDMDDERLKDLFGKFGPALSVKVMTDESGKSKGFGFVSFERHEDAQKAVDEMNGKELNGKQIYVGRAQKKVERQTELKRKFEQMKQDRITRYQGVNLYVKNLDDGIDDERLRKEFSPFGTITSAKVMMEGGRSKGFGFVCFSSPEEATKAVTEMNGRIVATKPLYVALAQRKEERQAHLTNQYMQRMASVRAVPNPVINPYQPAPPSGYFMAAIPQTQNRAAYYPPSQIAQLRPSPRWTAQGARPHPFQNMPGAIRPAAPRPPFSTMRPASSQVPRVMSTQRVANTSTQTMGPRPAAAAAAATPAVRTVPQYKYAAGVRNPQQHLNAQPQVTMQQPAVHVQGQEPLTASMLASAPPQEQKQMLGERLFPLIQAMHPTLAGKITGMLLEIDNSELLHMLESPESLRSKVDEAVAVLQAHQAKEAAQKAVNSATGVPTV
# FAD-linked sulfhydryl oxidase ALR, sequence (P55789 whole entry): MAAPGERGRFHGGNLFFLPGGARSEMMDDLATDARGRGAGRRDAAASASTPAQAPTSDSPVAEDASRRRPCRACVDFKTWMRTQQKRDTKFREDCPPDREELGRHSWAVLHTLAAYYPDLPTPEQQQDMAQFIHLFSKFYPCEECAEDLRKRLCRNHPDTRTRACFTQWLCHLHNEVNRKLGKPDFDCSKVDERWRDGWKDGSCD
smiles,measurement,setting,value
CC(=O)c1c(S)nc(-c2ccccc2)nc1NC(=O)c1ccccc1,IC50,[1],> 66 µM (inactive)
same,IC50,[2],> 66 µM (inactive)
NC(=O)c1nsc(C(=O)N(c2ccccc2)C(C(=O)NCC2CCCO2)c2cccs2)c1N (centres undefined),EC50,[3],> 260 µM (inactive)
COc1ccc(/C=C/C(=O)C23CC4CC(CC(C4)C2)C3)cc1CN1CCOCC1,EC50,[3],46 µM (active)
CCC(C)c1ccc(OCCn2ccnc2)cc1 (centres undefined),IC50,[4],22.6 µM (active)
CCN(CC)CCNc1ncnc2c1sc1nc(N3CCOCC3)c3c(c12)CC(C)(C)SC3,EC50,[5],7.85 µM (active)
same,AC50,[6],12.5 µM (active)
same,AC50,[7],8.39 µM (active)
same,EC50,[8],8.46 µM (active)
CCOC(=O)c1c(C)c(C(=O)Nc2ccc3c(c2)OCO3)c(C)n1C,EC50,[3],> 260 µM (inactive)
CC(NC(=O)c1cccs1)C(S)c1ccccc1 (centres undefined),IC50,[1],> 66 µM (inactive)
same,IC50,[2],> 66 µM (inactive)
CC(=O)Nc1cccc(NC(=O)CSc2ccc(-c3ccccn3)nn2)c1,IC50,[9],24.5 µM (active)
COCCCNc1nc2ccccc2nc1NS(=O)(=O)c1cccc(Cl)c1,IC50,[1],> 66 µM (inactive)
same,IC50,[2],> 66 µM (inactive)
O=C(O)Cn1c2ccccc2c2nnc(S)nc21,IC50,[1],> 66 µM (inactive)
same,IC50,[2],> 66 µM (inactive)
COc1cccc(C(=O)CSc2nnc(-c3cc(OC)c(OC)c(OC)c3)o2)c1,IC50,[9],> 79 µM (inactive)
CSc1ccc(C2C(C#N)=C(N)N(c3ccccc3)C3=C2C(=O)CCC3)cc1 (centres undefined),EC50,[3],27 µM (active)
Cc1c(C(=O)NCC2COc3ccccc3O2)oc2ccc(S(=O)(=O)N3CCOCC3)cc12 (centres undefined),IC50,[9],> 79 µM (inactive)
O=c1oc2ccccc2c2c1nc(C(F)(F)F)n2-c1ccccc1,IC50,[4],11.4 µM (active)
O=C(c1ccco1)N1CCN(C(=O)c2cc(-c3ccncc3)nc3ccc(Br)cc23)CC1,IC50,[9],7.04 µM (active)
same,EC50,[10],3.83 µM (active)
same,EC50,[11],> 60 µM (not active)
CCOC(=O)C(C(=O)OCC)C(Nc1ccc(Br)cc1)c1ccccc1 (centres undefined),AC50,[7],8.85 µM (active)
same,EC50,[8],276 µM (active)
same,EC50,[3],15.2 µM (active)
CC(C)(C)C(=O)Nc1cccc(-c2nnc(-c3cccc(NC(=O)C(C)(C)C)c3)o2)c1,IC50,[9],> 79 µM (inactive)
O=C1NC(c2ccc(Cl)c([N+](=O)[O-])c2)Nc2ccccc21 (centres undefined),IC50,[9],21.9 µM (active)
O=C(CCc1nc(O)c2ccccc2n1)NCc1ccco1,IC50,[9],> 79 µM (inactive)
same,EC50,[12],> 195 µM (not active)
CS(=O)(=O)N(CC(=O)N1CCN(Cc2ccc3c(c2)OCO3)CC1)Cc1ccc(Cl)cc1,EC50,[5],77.1 µM (active)
same,EC50,[8],497 µM (active)
CCC(Sc1nnc2c3ccccc3n(CC)c2n1)C(=O)Nc1sc2c(c1C#N)CCCC2 (centres undefined),EC50,[5],10.4 µM (active)
same,EC50,[8],11.7 µM (active)
COc1ccc(-c2nc3c(c4nnc(SC(C)C(=O)Nc5ccccc5)n24)COC(C)(C)C3)cc1 (centres undefined),EC50,[5],8.77 µM (active)
same,EC50,[8],9.44 µM (active)
Cc1ccc(NC(=O)CSC2=NCCN2)cc1,IC50,[1],> 66 µM (inactive)
same,IC50,[2],> 66 µM (inactive)
C=CCNCCOCCSc1ccc(Cl)cc1,EC50,[3],> 260 µM (inactive)
O=C1CC(NNc2ccccc2)C(=O)N1c1ccccc1 (centres undefined),AC50,[13],0.382 µM (active)
same,EC50,[3],> 260 µM (inactive)
COCC(C)NC(=O)/C(=C/c1ccccc1)c1ccccc1 (centres undefined),EC50,[3],> 260 µM (inactive)
NCCc1nnc(SCc2ccc(F)cc2)o1,EC50,[3],> 260 µM (inactive)
CCCCCn1c(N)c(-c2nc3ccccc3s2)c2c([N+](=O)[O-])nn(C)c(=O)c21,EC50,[5],12.5 µM (active)
same,EC50,[8],10.1 µM (active)
same,EC50,[10],2.14 µM (active)
same,EC50,[11],> 60 µM (not active)
O=C(Oc1cccc2c(O)nccc12)c1ccccc1,IC50,[9],> 79 µM (inactive)
Cc1sc(NC(=O)CCl)c(C(=O)c2ccccc2)c1C,EC50,[14],3.55 µM (active)
same,IC50,[1],> 66 µM (inactive)
same,IC50,[2],> 66 µM (inactive)
c1ccc(SCCOCCN2CCOCC2)cc1,EC50,[3],> 260 µM (inactive)
CC1CN(C(=O)CS(=O)(=O)Cc2ccccc2)CC(C)O1 (centres undefined),EC50,[3],> 260 µM (inactive)
Cc1ccc(N2CC(C(=O)NCc3nnc(O)c4ccccc34)CC2=O)cc1C (centres undefined),IC50,[9],> 79 µM (inactive)
O=C(C[C@@H]1C/C=C/CC[C@@H](Cc2ccc(F)cc2)C(=O)O[C@@H](c2ccccc2)CNC1=O)NCCO,IC50,[9],11.4 µM (active)
O=C(CCc1nc(O)c2ccccc2n1)N1CCN(S(=O)(=O)c2ccc(F)cc2)CC1,IC50,[9],> 79 µM (inactive)
Cc1ccccc1/N=C/c1cc2c(cc1[N+](=O)[O-])OCO2,IC50,[9],> 79 µM (inactive)
O=C1CSC(=S)N1/N=C/c1cccnc1,IC50,[1],> 66 µM (inactive)
same,IC50,[2],> 66 µM (inactive)
Cc1[nH]n(C(N)=S)c(=O)c1/N=N/c1ccc(S(=O)(=O)N2CCCC2)cc1,IC50,[1],> 66 µM (inactive)
same,IC50,[2],> 66 µM (inactive)
CS(=O)(=O)N(CC(=O)N/N=C/c1cc([N+](=O)[O-])ccc1Cl)c1ccccc1,EC50,[5],24.4 µM (active)
same,EC50,[8],26.4 µM (active)
COc1ccc(CN(C)C[C@@H]2Oc3c(NC(=O)c4ccc(-c5nccs5)cc4)cccc3C(=O)N([C@@H](C)CO)C[C@H]2C)cc1,AC50,[15],3.25 µM (active)
COc1cccc(-c2ccc3c(c2)[C@@H]2[C@@H](CCN2C(=O)C2CCCC2)[C@H](CO)N3)c1,AC50,[15],4.88 µM (active)
CO[C@@H]1CN(C)C(=O)c2ccc(NC(=O)C3CC3)cc2OC[C@@H](C)N(Cc2ccccc2)C[C@H]1C,AC50,[15],3.33 µM (active)
COc1cccc(NC(=O)N2[C@@H](CO)[C@@H](c3ccccc3)[C@@H]2CNC(C)C)c1,AC50,[15],5.06 µM (active)
COCC(=O)N1CCC2(CC1)CN(Cc1cccc(OC)c1)[C@@H](CO)c1[nH]c3cc(OC)ccc3c12,AC50,[15],7.42 µM (active)
